Experiments:
AMPLITAQ DNA polymerase = molecular target: T1, AMPLITAQ DNA polymerase (Thermus aquaticus, UniProt P19821); assay: PCR amplification of PERV protease fragment in the presence of dye/surfactant mixture; format: biochemical; conditions: dye at 0.1 or 0.2 mg/mL, agarose gel
T1 construct: purchased Applied Biosystems, Foster City, Calif
Experimental: Typically, a fresh stock solution of 5 milligrams (mg) of a water-insoluble near-infrared dye (NIR dye) was dissolved in 50 microliters (μL) of dimethylsulfoxide (DMSO) and brought up in water to a final volume of 1 milliliter (mL). This was then diluted out to various concentrations of dye. The diluted dye (typically 0.2 mg/mL) was then added to a surfactant solution (typically 4 wt-%) to form a complex. The complex was added to a PCR reaction.
PCR reactions were set up for a conserved sequence (327 bp) in the protease region of the genome of porcine endogenous retrovirus using a plasmid containing the PERV protease fragment, a forward primer and a reverse primer designed using a primer express program from Applied Biosystems, and AMPLITAQ DNA polymerase cocktail (commercially available from Applied Biosystems, Foster City, Calif.) and cycled in a thermocycler (9700, Applied Biosystems). The PCR reactions were typically carried out in 25-μL volumes. The NIR dye/surfactant mixture was added to the PCR cocktail to give the desired concentration of dye and surfactant in a total volume of 25 μL. […]
In order to find out the optimum concentration of surfactant for PCR with NIR dye (785 WS and SDA 8080), the surfactant concentration in PCR reaction was varied from 0.1 wt-% to 4 wt-%. The PCR product formed was quantitated using DNA 7500 Labchip kit in Agilent 2100 Bioanalyzer (Agilent Inc, Paloalto, Calif.). […]
A variety of dyes (NIR dyes such as IR782, IR768, SDA 2141, SDA8327, IR 830 WS, fluorescent dyes like oligreen and visible dyes like dichlorophenol, indophenol, saffranin, crystal violet, and commercially available food coloring) at typical concentrations of 0.1 or 0.2 mg/mL were allowed to interact with 4 wt-% PLURONIC F127 and each mixture was added to the PCR cocktail. The reaction was set up to amplify PERV protease fragment as described in Example 2 and the products of the reaction were analyzed by agarose gel electrophoresis.

[1] = Laser stability / photobleaching of dye on laser exposure; format: physicochemical
Experimental: An 813-nm diode laser source at 1.2W (1.9A) (Opto Power Corp., Tucson, Ariz.) was used to heat a 10-μL volume of near-IR dye at a concentration (0.1 mg/mL for 785 WS, 0.2 mg/mL for SDA 8080) to yield a 35° C. rise in temperature. The laser was manually turned on long enough for the temperature in a 10-μL well to increase by 35° C. (1-3 seconds) and was manually turned off when that level was attained. The temperature data was obtained using a thermocouple in the well, and the transmittance data was obtained via a power meter whose signals were digitized and graphically interpreted.
In another experiment, the 10 μL well was used to see if the dye/surfactant mixture could withstand laser cycling over a period of 30 cycles. The laser power was systematically varied from 60° C. to 94° C., 30 times.
Unlike in Example 8, some dyes and dye/surfactant complexes undergo photodegradation when exposed to laser beam. […] Specifically, in the case of 785 WS/BRIJ-97, the addition of ascorbic acid (typically 5 mg/mL) helped reduce the amount of photobleaching from 100% to 20% after 30 cycles. In some circumstances, rapid/controlled photodegradation may be desired. […] This would allow DNA tags (fluorescent or vis/IR) to be monitored at the end of the PCR reaction.

T1 sequence (P19821 whole entry, the tested form may be a part): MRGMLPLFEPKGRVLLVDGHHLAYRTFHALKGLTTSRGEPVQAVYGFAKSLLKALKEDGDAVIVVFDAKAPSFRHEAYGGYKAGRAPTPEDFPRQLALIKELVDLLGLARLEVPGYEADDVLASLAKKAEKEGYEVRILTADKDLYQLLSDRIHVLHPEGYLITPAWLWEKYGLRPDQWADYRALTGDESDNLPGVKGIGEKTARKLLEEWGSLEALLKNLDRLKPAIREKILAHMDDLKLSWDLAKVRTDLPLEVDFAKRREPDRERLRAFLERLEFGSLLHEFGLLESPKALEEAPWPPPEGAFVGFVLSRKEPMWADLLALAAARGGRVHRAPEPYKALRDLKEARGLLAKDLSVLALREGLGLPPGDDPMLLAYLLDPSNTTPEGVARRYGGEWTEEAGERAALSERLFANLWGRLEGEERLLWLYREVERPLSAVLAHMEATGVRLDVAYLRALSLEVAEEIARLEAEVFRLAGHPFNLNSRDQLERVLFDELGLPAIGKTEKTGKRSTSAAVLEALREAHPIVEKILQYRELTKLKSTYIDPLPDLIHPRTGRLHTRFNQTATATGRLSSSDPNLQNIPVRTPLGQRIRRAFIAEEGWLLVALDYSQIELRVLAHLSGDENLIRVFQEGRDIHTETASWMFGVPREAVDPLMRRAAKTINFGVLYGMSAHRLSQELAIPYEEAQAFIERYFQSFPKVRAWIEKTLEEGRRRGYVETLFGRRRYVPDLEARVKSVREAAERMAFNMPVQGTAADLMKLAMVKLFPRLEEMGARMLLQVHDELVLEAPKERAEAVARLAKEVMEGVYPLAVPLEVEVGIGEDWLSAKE

amount of photobleaching ([1]; 785 WS/BRIJ-97 with ascorbic acid (typically 5 mg/mL), after 30 cycles) [%]	effect of antioxidant on photobleaching ([1]; added to virtually any of the surfactants tested with 785 WS)	Compound	effect of dye alone on PCR (AMPLITAQ DNA polymerase)	effect of antioxidant on dye absorbance ([1]; added to SDA 8080)
		CN(C)c1ccc(C(=C2C=CC(=[N+](C)C)C=C2)c2ccc(N(C)C)cc2)cc1 [crystal violet]	inhibited PCR	
20	reduced photobleaching significantly	O=C1O[C@H]([C@@H](O)CO)C(O)=C1O [ascorbic acid]		destroyed the absorbance in the visible and near-IR region of the dye
		dichlorophenol	inhibited PCR	
		Cc1cc2nc3cc(C)c(N)cc3[n+](-c3ccccc3)c2cc1N.[Cl-] [saffranin]	inhibited PCR	
